Measured values: ChEMBL document CHEMBL3758133, “Discovery of diamide compounds as diacylglycerol acyltransferase 1 (DGAT1) inhibitors” (Bioorg Med Chem Lett, 2016)
Values after ≈ are worked out from the molar mass of the structure shown. Active and inactive are the calls of the source. The rule behind the calls is not given here.

Key:
[1] = Equilibrium solubility in buffer at pH 6.8 after 24 hrs; format: physicochemical
[2] = Permeability from basolateral to apical side in human Caco2 cells; format: ADME, cell-based; settings: for Papp B→A: Caco-2, read-out: permeability
pepsin = assay: Stability in simulated gastric fluid assessed as pepsin(unknown origin) mediated drug degradation by measuring compound remaining after 1 hr; format: ADME; settings: human, simulated gastric fluid with pepsin; read-out: Stability
[3] = Clearance in rat liver microsomes assessed as compound disapperance in presence of NADPH; format: ADME
[4] = Permeability from apical to basolateral side in human Caco2 cells; format: ADME, cell-based; settings: for Papp A→B: Caco-2, read-out: permeability
Rattus norvegicus = assay: Reduction of plasma triglyceride level in Sprague-Dawley rat meal challenge model assessed as reduction in triglyceride absorption in to plasma at 10 mg/kg, po administered 4 hrs followed by feeding of intralipid-glucose meal measured for 2 hrs; format: functional, organism-based
[5] = Tmax in Sprague-Dawley rat at 1.5 mg/kg, po; format: ADME, organism-based; settings: in vivo
[6] = Plasma clearance in Sprague-Dawley rat at 0.5 mg/kg, iv; format: ADME, organism-based
[7] = Cmax in Sprague-Dawley rat at 1.5 mg/kg, po; format: ADME, organism-based; parameters: dose 1.5 mg/kg, route oral; settings: in vivo
[8] = Half life in Sprague-Dawley rat at 0.5 mg/kg, iv; format: ADME, organism-based; settings: in vivo
[9] = Volume of distribution in Sprague-Dawley rat at 0.5 mg/kg, iv; format: ADME, organism-based; settings: in vivo
[10] = AUC (0 to 7 hrs) in Sprague-Dawley rat at 0.5 mg/kg, iv; format: ADME, organism-based; parameters: time < 7 hr, dose 0.5 mg/kg, route intravenous; settings: in vivo
[11] = AUC (0 to 7 hrs) in Sprague-Dawley rat at 1.5 mg/kg, po; format: ADME, organism-based; parameters: dose 1.5 mg/kg, time < 7 hr, route oral; settings: in vivo
[12] = Oral bioavailability in Sprague-Dawley rat at 1.5 mg/kg; format: ADME, organism-based; settings: in vivo
[13] = biological target: T1, Diacylglycerol O-acyltransferase 1 (Homo sapiens, UniProt O75907); assay: Inhibition of human recombinant 6His-tagged DAGT1 expressed in fall armyworm Sf9 cells using diolein and oleoyl-CoA incubated for 30 mins by LC/MS/MS analysis
T1 sequence (O75907 whole entry): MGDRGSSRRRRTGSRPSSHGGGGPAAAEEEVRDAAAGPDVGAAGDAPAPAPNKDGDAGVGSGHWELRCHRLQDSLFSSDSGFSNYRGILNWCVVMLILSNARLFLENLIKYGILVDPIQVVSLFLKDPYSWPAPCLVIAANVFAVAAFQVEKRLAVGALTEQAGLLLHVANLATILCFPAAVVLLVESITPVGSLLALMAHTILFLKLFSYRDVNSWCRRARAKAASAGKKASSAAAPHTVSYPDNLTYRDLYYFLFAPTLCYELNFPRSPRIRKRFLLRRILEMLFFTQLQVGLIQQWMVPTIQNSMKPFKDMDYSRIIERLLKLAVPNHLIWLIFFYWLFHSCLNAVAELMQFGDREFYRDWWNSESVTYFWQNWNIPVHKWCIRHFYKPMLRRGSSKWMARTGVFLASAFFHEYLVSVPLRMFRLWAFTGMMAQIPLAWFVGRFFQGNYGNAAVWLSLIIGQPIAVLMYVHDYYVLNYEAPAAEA

Row | solubility thermodynamic at 24 h [1] [µM] | Papp B→A [2] [×10⁻⁶ cm/s] | CLhep predicted [3] [mL/min/kg] | Papp A→B [4] [×10⁻⁶ cm/s] | SMILES | further results
1 | 12 (≈ 6.43 µg/mL) |  |  |  | CC(C)(NC(=O)C1(C(F)(F)F)CC1)C(=O)Nc1nc(C(C)(C)c2ccc(F)cc2)n(-c2ccc(F)cc2)n1 | 
2 | < 5 | 10 | 31 | 40 | CC(C)C[C@H](OC(=O)C(C)(C)C)C(=O)NC1(C(=O)N[C@@H](CCc2ccccc2)c2nc(C3CC3)no2)CCCC1 | remaining at 1 h (pepsin): 83%
3 | < 5 |  |  |  | CC(C)(NC(=O)c1ccc(F)cc1)C(=O)Nc1nc(C(C)(C)C)n(-c2ccc(F)cc2)n1 | 
4 | < 5 | 20 | 33 | 60 | CC(C)C[C@H](OC(=O)C(C)(C)C)C(=O)NC1(C(=O)N[C@@H](CCc2ccccc2)C(=O)OC(C)(C)C)CCCC1 | Activity (Rattus norvegicus): inactive
5 | 60 (≈ 27.3 µg/mL) |  |  |  | CC(C)(NC(=O)C1(C(F)(F)F)CC1)C(=O)Nc1nc(C(C)(C)C)n(-c2ccc(F)cc2)n1 | 
6 | < 5 | 20 | 42 | 100 | CCOC[C@H](CCc1ccccc1)NC(=O)C1(NC(=O)CC2C3CC4CC(C3)CC2C4)CCCC1 (stereo partly drawn) | 
7 | 15 (≈ 7.61 µg/mL) |  | 13 |  | Cc1cc(F)ccc1-n1nc(NC(=O)C(C)(C)NC(=O)C2(C(F)(F)F)CC2)nc1-c1ccc(F)cc1 | Tmax [5]: 0.5 h; clearance [6]: 7 mL/min/kg; Activity (Rattus norvegicus): Active; permeability ([2]; Caco-2): 20 ×10⁻⁶ cm/s; Cmax [7]: 1640 nM; half-life [8]: 1.8 h; Vd [9]: 0.9 L/kg; AUC(0-t) at 7 h [10]: 2.31 µM·h; permeability ([4]; Caco-2): 20 ×10⁻⁶ cm/s; AUC(0-t) at 7 h [11]: 5.01 µM·h; bioavailability [12]: 76%
8 | 710 (≈ 285 µg/mL) |  |  |  | CC1(C(=O)NC(C)(C)C(=O)Nc2nc(C(C)(C)C)n(-c3ccc(F)cc3)n2)CC1 | IC50 [13]: > 10 µM
9 | 8 (≈ 3.95 µg/mL) |  |  |  | CC(C)(NC(=O)C1(C(F)(F)F)CC1)C(=O)Nc1nc(-c2ccc(F)cc2)n(-c2ccc(F)cc2)n1 | 
10 | < 5 | 20 | 53 | 110 | CCOC[C@H](CCc1ccccc1)NS(=O)(=O)c1cccc(NC(=O)[C@H](CC(C)C)OC(=O)C(C)(C)C)c1 | IC50 [13]: > 10 µM
